Source: patent US20070185128A1, “Compounds and compositions for treating obesity” (priority 2002, published 2007)

Tested on: schedule fed male SPRD rat
Assay: Assay (I): efficacy on appetite, schedule-fed rat model, food intake (diet consumed)
Assay type: in vivo
Details: for Diet Consumed 1 hr (mean X of 8 rats): 1 hr after dosing; for Diet Consumed 2 hr (mean X of 8 rats): cumulative at 2 hr after dosing; for Diet Consumed 3 hr (mean X of 8 rats): cumulative at 3 hr after dosing
Experimental: FIG. 1: Effect on food intake in schedule fed (8 h-13 h) male SPRD rat model as described in assay 1. The rats are dosed ip at 08.00 h with vehicle, sibutramine (3 mg/kg) and (S,S)-6-(4-amino-butyl)-1-biphenyl-4-ylmethyl-3-naphthalen-2-ylmethyl-piperazine-2,5-dione (example 11) (1, 3 or 10 mg/kg). Rat chow and water is available from just post dosing, and food intake is measured every hour from dosing to 3 hours post dosing.
The bars indicate the cumulated food intake over time.
Assay (I) Experimental Protocol for Efficacy Testing on Appetite with MC4 Analogues, Using a Schedule—Fed Rat Model.
TAC:SPRD @mol rats or Wistar rats from M&B Breeding and Research Centre A/S, Denmark are used for the experiments. The rats have a bodyweight 200-250 g at the start of experiment. The rats arrive at least 10-14 days before start of experiment with a bodyweight of 180-200 g. Each dose of compound is tested in a group of 8 rats. A vehicle group of 8 rats is included in each set of testing.
When the animals arrive they are housed individually. After a habituating period of 4-7 days with free access to food and water, the schedule feeding is initiated. The rats are allowed to eat from 08 am to 01 pm each day. In the remaining period only access to water is allowed. They are kept on this feeding schedule for 8 days before start of experiment. In this period the animals are handled and dosed in the relevant way (ip, po, sc.) with saline at least 3 times. The experiment is conducted in the rat home cages. Immediately before dosing the rats are randomised to the different treatment groups (n=8) by bodyweight. They are dosed according to bodyweight at 08 am, with a 1 ml/kg solution either, ip, po or sc. The dosing time is recorded for each group. Following dosing the rats are returned to their home cages, where they now have access to food and water. The food consumption is recorded individually, each hour for 3 hours. At the end of the experimental session, the animals are euthanised.
The individual data are recorded in Microsoft excel sheets. Outliers are excluded after using the Grubbs statistical evaluation test for outliers and the result presented graphically by using the GraphPad Prism program.

## NCCCC[C@H]1C(=O)N[C@@H](Cc2ccc3ccccc3c2)C(=O)N1Cc1ccc(-c2ccccc2)cc1 [Example 23, (S,S)-6-(4-Amino-butyl)-1-biphenyl-4-ylmethyl-3-naphthalen-2-ylmethyl-piperazine-2,5-dione]
1 mg/kg i.p.
  Diet Consumed 1 hr (mean X of 8 rats): 2.4 Grams
  Diet Consumed 2 hr (mean X of 8 rats): 6.3 Grams
  Diet Consumed 3 hr (mean X of 8 rats): 8.4 Grams
3 mg/kg i.p.
  Diet Consumed 1 hr (mean X of 8 rats): 3.4 Grams
  Diet Consumed 2 hr (mean X of 8 rats): 7.1 Grams
  Diet Consumed 3 hr (mean X of 8 rats): 8.5 Grams
10 mg/kg i.p.
  Diet Consumed 1 hr (mean X of 8 rats): 2.7 Grams
  Diet Consumed 2 hr (mean X of 8 rats): 5.4 Grams
  Diet Consumed 3 hr (mean X of 8 rats): 6.3 Grams

## CC(C)CC(N(C)C)C1(c2ccc(Cl)cc2)CCC1 (stereo not drawn) [Sibutramine, reference compound]
3 mg/kg i.p.
  Diet Consumed 1 hr (mean X of 8 rats): 3.5 Grams
  Diet Consumed 2 hr (mean X of 8 rats): 7.0 Grams
  Diet Consumed 3 hr (mean X of 8 rats): 9.4 Grams
